Earlier results on one molecule are cited in US9737644B2, “Medical device coatings” (TYRX, Inc., priority 2010, dated 2017).

The test system of the series is myofibroblast formation. Particulars: animal studies, Ajmal et al. (2003).

Turning to `O=S(=O)([O-])CCS.[Na+]` [Mesna, sodium 2-mercaptoethane sulfonate], the myofibroblast formation entry is “diminish myofibroblast formation”.
